Test results taken from US20040209238A1, “Cell division-visualized cell and method of production of the same, method of detection of fluorescence, method of evaluation of influence upon cell division, and method of screenig” (NAGASE & CO., LTD., priority 2002, published 2004).
“Also recorded” adds a separate entry of the source.

System: human MDA435 cell (transformed with aurora A-GFP, histone H3-CFP, importin α-DsRed)
Experiment: real-time fluorescence observation of cell division in the cell division-visualized cell after addition of an agent
Assay type: cell-based
Conditions: vinblastine added to the culture fluid
Description: As a cell to which the aforementioned plasmid DNA is introduced, human MDA435 cell (Vig et al., 1996; Sugimoto et al., 2000, 2001) was used. The human MDA435 cell was cultured in D-MEM medium containing 10% FCS (manufactured by Nissui Pharmaceutical Co., Ltd.) at 37° C. under 5% carbon dioxide in the air. Cells in the logarithmic growth phase were washed with 4 ml of 1×PBS (−), and the cells were detached by adding 1 ml of trypsin. After terminating the action of trypsin by adding 4 ml of D-MEM medium, the cell suspension was transferred into a centrifuge tube, and a part thereof was removed to subject to the measurement of cell number using a hematometer. The remaining part was centrifuged at 1000 rpm for 10 minutes, and thus recovered cells were washed by suspending in 12 ml of 1×PBS (−). This operation was repeated twice, and the cells were suspended in 1×K-PBS to give the cell density of 1.2×10^7 cells/ml.
The transformed cells described above were cultured in a wet chamber with controlled carbon dioxide concentration and temperature by a thermostat and a control timer of carbon dioxide introduction (Japan, manufactured by Kokensya Engineering), using a 35 mm dish (with a cover glass attached on the bottom: manufactured by ASAHI TECHNO GLASS CORPORATION) on the stage of a inverted fluorescence microscope “Eclipse TE300” (manufactured by Nikon) equipped with a objective lens “PlanApo 60×”. Then, a highly sensitive CCD camera ORCA-ER (manufactured by Hamamatsu Photonics K.K.), and an excitation/absorption filter wheel equipped with a filter set for CFP/YFP/RFP for the observation (No. 86006, manufactured by Chroma Technology Corp.) and aZ-axis motor, and a controller “BioPoint MAC5000” (manufactured by Ludl Electronic Products Ltd.) which is a control equipment of the same were used, with the use of a computer software (LuminaVision version 1.40, manufactured by Mitani Co., Ltd.) for controlling these accessories. […]

CC[C@]1(O)C[C@@H]2CN(CCc3c([nH]c4ccccc34)[C@@](C(=O)OC)(c3cc4c(cc3OC)N(C)[C@H]3[C@@](O)(C(=O)OC)[C@H](OC(C)=O)[C@]5(CC)C=CCN6CC[C@]43[C@@H]65)C2)C1 [vinblastine]
alignment of the chromosomes on the equatorial plane (transition to the metaphase) (cyan fluorescence (histone H3), up to 130 minutes following initiation of the observation, FIG. 2 and FIG. 3): not found even after lapse of 130 minutes; also recorded: not observed even after lapse of 130 minutes
movement of the centrosomes toward the poles and formation of the spindle (green fluorescence (aurora A), FIG. 2): inhibition was made on the movement of the centrosomes toward the poles
progress of cell division, transition from the prophase to the prometaphase (observed at intervals of 2 minutes, FIG. 2 and FIG. 3): inhibition of the transition from the prophase to the prometaphase
